In US20060021470A1, “Compositions for enhancing biological functions in organisms” (priority 2004, published 2006):

System: ech42 (42-kDa endochitinase-encoding) gene expression
Test: ech42 endochitinase promoter:gfp induction in T. atroviride strain P1
Assay type: cell-based
Conditions: endochitinase promoter:gfp fluorescence in Trichoderma strain P1
Excerpt: To monitor chitinase expression during mycoparasitism of Trichoderma atroviride (formerly T. harzianum) strain P1 in situ, the strain was transformed with plasmids containing fusions of green fluorescent protein (“gfp”) to the 5-regulatory sequences of the T. atroviride nag1 gene (N-acetyl-beta-D-glucosaminidase-encoding) or ech42 (42-kDa endochitinase-encoding) genes. Confronting these strains with the target Rhizoctonia solani led to induction of gene expression before (ech42) or after (nag 1) physical contact. […] The chitinase inhibitor allosamidin blocked ech42 expression and reduced inhibition of R. solani growth during confrontation. […] T. atroviride, T. harzianum, and any other species of Trichoderma produce small quantities of particular enzymes constitutively. […]
The ability of Trichoderma to release elicitor compounds from the various target fungi was measured by induction of gfp in the endochitinase promoter labeled P1 strain of Trichoderma. […]
In subsequent experiments, the release of elicitors from cell walls of some of the same fungi and Oomycetes tested above using enzymes (endochitinase, glucanase, exochitinase, mixed cellulase) purified from T. atroviride was assessed. Again, the elicitation abilities of the materials were assessed with Trichoderma strain P1 transformed to contain the endochitinase promoter:gfp construct. […]

Chitobiose
elicitor activity: least effective
